In US8518700B2, “Composition for reprogramming somatic cells to generate induced pluripotent stem cells, comprising Bmi1 and low molecular weight substance, and method for generating induced pluripotent stem cells using the same” (Korea University Research and Business Foundation, priority 2010, dated 2013):

Legend:
Type in all cases: cell-based
[1] = tested on: Bmi1-transduced mouse somatic cells (neurosphere-like cells); assay: Reprogramming of neurosphere-like cells from Bmi1-transduced mouse somatic cells (EGF-free neural stem cell condition) into iPS cells; conditions: 1 μM BIX01294 and 0.5 μM RG108 together; one week; condition used for mouse embryonic stem cells
Description: (§1) Mouse somatic cells, in detail, mouse fibroblasts were employed to generate embryonic stem cell-like cells. Embryos were taken from CF1 strain mice on embryonic day 13.5. Cells were cultured in DMEM (high glucose, w/o sodium pyruvate) supplemented with 10% FBS (Fetal bovine serum), 0.1 mM non-essential amino acid, 1% penicillin/streptomycin and 0.1 mM β-mercaptoethanol in tissue culture flasks, after which fibroblasts at the 3rd passage were seeded at a density of 2×10^5 cells/well into 6-well plates.
(§2) For use in gene transfer, retrovirus particles were prepared from the PT67 packaging cell line. In this context, a pBabe puro Bmi1 (from Dr. G. P. Dimri, Evanston Northwestern Healthcare Research Institute, Feinberg School of Medicine, Northwestern University, Evanston, Ill. 60201, USA), constructed by inserting a human Bmi1 gene (NCBI accession No. L13689) into a pBabe puro vector, was transfected into a PT67 packaging cell line (Clontech) with the aid of Turbofect (Fermentas), followed by drug selection with puromycine (3 μg/ml, BD bioscience). The PT67 packaging cell line allowed the production of high-titer viruses capable of infecting a broad range of mammalian host cells.
(§3) The expression of each gene was monitored with RT-PCR. […]

[2] = tested on: Bmi1-transduced mouse somatic cells (Oct4-positive cells); assay: Reprogramming of Oct4-positive Bmi1-transduced mouse somatic cells into iPS cells by treatment with low molecular weight substances; conditions: 0.5 μM PD0325901 and 3 μM CHIR99021 together; culture conditions of mouse embryonic stem cells
Description: as §1, §2, §3

[3] = tested on: Bmi1-transduced mouse somatic cells (neurosphere-like cells); assay: Reprogramming of neurosphere-like cells from Bmi1-transduced mouse somatic cells (neural stem cell condition with bFGF and EGF) into iPS cells; conditions: 2 mM VPA; one week; condition used for mouse embryonic stem cells
Description: as §1, §2, §3

Structure (SMILES) | Reprogramming into iPS cells (BC-iPS 2) [1] | Reprogramming into iPS cells (BC-iPS 1) [2] | other results
COc1cc2nc(N3CCCN(C)CC3)nc(NC3CCN(Cc4ccccc4)CC3)c2cc1OC [BIX01294, 2-(Hexahydro-4-methyl-1H-1,4-diazepin-1-yl)-6,7-dimethoxy-N-[1-(phenylmethyl)-4-piperidinyl]4-quinazolinamine] | establish iPS cells |  | 
Cc1c[nH]c(-c2cnc(NCCNc3ccc(C#N)cn3)nc2-c2ccc(Cl)cc2Cl)n1 [CHIR99021] |  | establish induced stem cells | 
O=C(O)[C@H](Cc1c[nH]c2ccccc12)N1C(=O)c2ccccc2C1=O [RG108, N-Phthalyl-L-tryptophan] | establish iPS cells |  | 
CCCC(CCC)C(=O)O [VPA, 2-propylenepentanoic acid] |  |  | Reprogramming into iPS cells [3]: iPS cells were established
O=C(NOC[C@H](O)CO)c1ccc(F)c(F)c1Nc1ccc(I)cc1F [PD0325901] |  | establish induced stem cells | 
